{
  "source": "paper PMC10318822",
  "about": "“Phase 1 dose-escalation study to evaluate the safety, tolerability, pharmacokinetics, and anti-tumor activity of FCN-159 in adults with neurofibromatosis type 1-related unresectable plexiform neurofibromas” (BMC Medicine, 2023)",
  "key": {"NF1-related PN": {"tested_on": "NF1-related PN", "assay": "Tumor response by MRI volumetric analysis (Response Evaluation in Neurofibromatosis Schwannomatosis criteria)", "format": "in vivo, human", "settings": "for Best overall response: Complete response / Best overall response: Disease progression / Best overall response: Not evaluable / Best overall response: Partial response / Best overall response: Stable disease: Investigator assessments", "description": "Primary endpoints of the study were the DLT incidence rate, MTD, and RP2D. Secondary endpoints included other safety assessments, imaging tumor response (complete response [CR], PR, stable disease [SD], or progressive disease [PD]), and PK parameters of FCN-159. Adverse events were graded per CTCAE v5.0.\nAll patients underwent a complete medical history, physical examination, Eastern Cooperative Oncology Group (ECOG) assessment, and laboratory analysis of test results. Drug-related TEAEs, serious adverse events (SAEs), TEAEs of grade ≥ 3 toxicity, and TEAEs leading to drug discontinuation were reviewed on an ongoing basis. Efficacy was assessed by radiologic scans and clinical assessment. Tumor assessments per Response Evaluation in Neurofibromatosis Schwannomatosis criteria were performed by investigators using MRI volumetric analysis every 4 cycles within the first 2 years (± 7 days) and every 6 cycles after 2 years (± 14 days) until PD, death, patient's voluntary withdrawal from study treatment, or study termination. MRI sequences of […], T1- and T2-weighted sequences were chosen and the software of Extended Brilliance Workspace, SIGNA Premier and uExceed were used for MRI volumetric analysis. The same software was used for all tumor assessments at baseline and subsequent assessed timepoints of the same patient. Pain was assessed by an 11-point numerical rating scale (NRS-11)."}, "CYP3A4": {"tested_on": "CYP3A4", "parameters": "method as in PMID 36755948", "settings": "in vitro study; cited from earlier work"}, "[1]": {"tested_on": "MAPK pathway (phosphorylation of MEK kinase and intracellular ERK)", "parameters": "method as in doi:10.1158/1538-7445.AM2020-1951", "settings": "human colon cancer cells; preventing phosphorylation of MEK kinase and intracellular ERK; cited from earlier work"}, "[2]": {"tested_on": "xenograft models (including human melanoma A375)", "parameters": "method as in doi:10.1158/1538-7445.AM2020-1951", "settings": "nude mouse xenograft models (including human melanoma A375); cited from earlier work"}, "[3]": {"tested_on": "patients with advanced NRAS mut+ melanoma", "parameters": "method as in PMID 36113242", "settings": "cited from earlier work"}, "[4]": {"parameters": "method as in PMID 36113242", "settings": "patients with NRAS mut+ melanoma; cited from earlier work"}, "[5]": {"parameters": "method as in PMID 36627544", "settings": "healthy volunteers, compared with fasted state; cited from earlier work"}},
  "note": "Entries after “also recorded” stand apart in the source; their conditions may differ.",
  "data": [
    {"smiles": "Cn1c(=O)c(F)c(Nc2ccc(I)cc2F)c2c(=O)n(C3CC3)nc(-c3cccc(NS(=O)(=O)C4CC4)c3)c21", "note": "[FCN-159]", "values": [
      {"measurement": "Best overall response: Complete response", "setting": "NF1-related PN; 4 mg (n = 3)", "value": "0 n (%)"},
      {"measurement": "Best overall response: Disease progression", "setting": "NF1-related PN; 4 mg (n = 3)", "value": "0 n (%)"},
      {"measurement": "Best overall response: Not evaluable", "setting": "NF1-related PN; 4 mg (n = 3)", "value": "0 n (%)"},
      {"measurement": "Best overall response: Partial response", "setting": "NF1-related PN; 4 mg (n = 3)", "value": "1 (33.3) n (%)"},
      {"measurement": "Best overall response: Stable disease", "setting": "NF1-related PN; 4 mg (n = 3)", "value": "2 (66.7) n (%)"},
      {"measurement": "Best overall response: Complete response", "setting": "NF1-related PN; 6 mg (n = 4)", "value": "0 n (%)"},
      {"measurement": "Best overall response: Disease progression", "setting": "NF1-related PN; 6 mg (n = 4)", "value": "0 n (%)"},
      {"measurement": "Best overall response: Not evaluable", "setting": "NF1-related PN; 6 mg (n = 4)", "value": "0 n (%)"},
      {"measurement": "Best overall response: Partial response", "setting": "NF1-related PN; 6 mg (n = 4)", "value": "2 (50.0) n (%)"},
      {"measurement": "Best overall response: Stable disease", "setting": "NF1-related PN; 6 mg (n = 4)", "value": "2 (50.0) n (%)"},
      {"measurement": "Best overall response: Complete response", "setting": "NF1-related PN; 8 mg (n = 5)", "value": "0 n (%)"},
      {"measurement": "Best overall response: Disease progression", "setting": "NF1-related PN; 8 mg (n = 5)", "value": "0 n (%)"},
      {"measurement": "Best overall response: Not evaluable", "setting": "NF1-related PN; 8 mg (n = 5)", "value": "0 n (%)"},
      {"measurement": "Best overall response: Partial response", "setting": "NF1-related PN; 8 mg (n = 5)", "value": "2 (40.0) n (%)"},
      {"measurement": "Best overall response: Stable disease", "setting": "NF1-related PN; 8 mg (n = 5)", "value": "3 (60.0) n (%)"},
      {"measurement": "Best overall response: Complete response", "setting": "NF1-related PN; 12 mg (n = 4)", "value": "0 n (%)"},
      {"measurement": "Best overall response: Disease progression", "setting": "NF1-related PN; 12 mg (n = 4)", "value": "0 n (%)"},
      {"measurement": "Best overall response: Not evaluable", "setting": "NF1-related PN; 12 mg (n = 4)", "value": "0 n (%)"},
      {"measurement": "Best overall response: Partial response", "setting": "NF1-related PN; 12 mg (n = 4)", "value": "1 (25.0) n (%)"},
      {"measurement": "Best overall response: Stable disease", "setting": "NF1-related PN; 12 mg (n = 4)", "value": "3 (75.0) n (%)"},
      {"measurement": "Patients with progressive disease (PD)", "setting": "NF1-related PN; 16 evaluable patients", "value": "none experienced PD; also recorded: zero patients had PD"},
      {"measurement": "Patients with reduced tumor volume", "setting": "NF1-related PN; 16 patients with at least one post-baseline tumor assessment", "value": 100, "unit": "%"},
      {"measurement": "Best overall response: Complete response", "setting": "NF1-related PN; Total (n = 16)", "value": "0 n (%)"},
      {"measurement": "Best overall response: Disease progression", "setting": "NF1-related PN; Total (n = 16)", "value": "0 n (%)"},
      {"measurement": "Best overall response: Not evaluable", "setting": "NF1-related PN; Total (n = 16)", "value": "0 n (%)"},
      {"measurement": "Best overall response: Partial response", "setting": "NF1-related PN; Total (n = 16)", "value": "6 (37.5) n (%)"},
      {"measurement": "Best overall response: Stable disease", "setting": "NF1-related PN; Total (n = 16)", "value": "10 (62.5) n (%)"},
      {"measurement": "Largest reduction in tumor volume", "setting": "NF1-related PN; in vivo", "value": 84.2, "unit": "%"},
      {"measurement": "Patients achieving partial responses", "setting": "NF1-related PN; six of 16 evaluable patients", "value": 37.5, "unit": "%"},
      {"measurement": "Metabolism", "setting": "CYP3A4", "value": "metabolized primarily by CYP3A4"},
      {"measurement": "Effect on downstream MAPK pathway", "setting": "[1]", "value": "blocks the downstream MAPK pathway"},
      {"measurement": "Tumor growth", "setting": "[2]", "value": "Anti-tumor activity was observed"},
      {"measurement": "DLTs or SAEs", "setting": "[3]; 6 mg or lower, as of October 20, 2020, dose escalated from 0.2 mg to 15 mg", "value": "no DLTs or SAEs were observed"},
      {"measurement": "Tolerability", "setting": "[3]; first-in-human study, NRAS mut+ melanoma", "value": "well tolerated"},
      {"measurement": "RP2D", "setting": "[3]; phase 1a study, advanced NRAS mut+ melanoma", "value": 12, "unit": "mg"},
      {"measurement": "Mean T1/2", "setting": "[4]", "value": "32 to 57", "unit": "h"},
      {"measurement": "Food effect on pharmacokinetic profile", "setting": "[5]", "value": "food did not affect the pharmacokinetic profile"}
    ]}
  ]
}
